The results in this text go back to patent US7652047B2, “Phenylamino isothiazole carboxamidines as MEK inhibitors” (Ardea Biosciences, Inc., priority 2005, dated 2010).

The test deals with T1, MEK1^CA (human GST-MEK1, constitutively active, Ser218Asp and Ser222Asp) (Homo sapiens, UniProt Q02750, S218D/S222D).
T1 construct: GST; made in house; host or cells: Escherichia coli
The experiment in a line: MEK1 enzymatic activity assay (MEK1^CA / ERK2 / MBP, [γ-33P]ATP incorporation). The settings on record: Table 1, compounds of formula I; read-out: Avg IC50. It is filed as biochemical. Summed up:
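Cascade assay: 25 µl reactions with 0.002 nmol E. coli-expressed GST-MEK1 S218D/S222D, 0.02 nmol His-tagged mouse ERK2, 0.25 nmol MBP, 0.25 nmol unlabeled ATP and 0.1 µCi [γ-33P]ATP. Compound preincubated 30 min at ambient temperature with MEK1/ERK2; stopped with TCA, 33P-labelled protein filter-captured and scintillation-counted.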

T1 sequence (Q02750 whole entry S218D/S222D): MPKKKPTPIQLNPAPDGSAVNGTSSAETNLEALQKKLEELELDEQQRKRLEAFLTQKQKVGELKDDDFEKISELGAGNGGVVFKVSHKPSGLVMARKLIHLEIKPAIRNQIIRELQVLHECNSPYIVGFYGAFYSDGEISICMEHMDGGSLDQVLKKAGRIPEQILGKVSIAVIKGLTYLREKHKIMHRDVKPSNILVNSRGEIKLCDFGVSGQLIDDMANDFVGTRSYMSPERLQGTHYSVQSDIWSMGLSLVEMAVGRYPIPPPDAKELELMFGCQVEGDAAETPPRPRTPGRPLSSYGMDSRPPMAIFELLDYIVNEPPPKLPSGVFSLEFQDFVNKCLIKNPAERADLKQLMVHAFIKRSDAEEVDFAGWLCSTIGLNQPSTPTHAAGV

As to `CC(C)NC(=N)c1c(O)nsc1Nc1ccc(Oc2cc(F)cc(F)c2)cc1` [compound 287], the IC50 lay in the range of 1 to 100 nM.

As for `Cc1ccc(Cl)c(Oc2ccc(Nc3snc(O)c3C(=N)NC(C)CO)cc2)c1` (stereo not drawn) [compound 288], the concentration for half-maximal inhibition (IC50) lay in the range of 1 to 100 nM. Turning to `Cc1cccc(Oc2ccc(Nc3snc(O)c3C(=N)NC(C)CO)cc2)c1` (stereo not drawn) [compound 289], the IC50 is 1 to 100 nM. Take `CC(C)NC(=N)c1c(O)nsc1Nc1ccc(Oc2ccccc2Br)c(Cl)c1` [compound 290]: the IC50 lay in the range of 1 to 100 nM. The same measure for `Cc1cccc(Oc2ccc(Nc3snc(O)c3C(=N)NC(C)C)cc2)c1` [compound 291]: 1 to 100 nM; for `Cc1ccc(Cl)c(Oc2ccc(Nc3snc(O)c3C(=N)NC(C)C)cc2)c1` [compound 292]: 1 to 100 nM.

Regarding `CC(C)NC(=N)c1c(O)nsc1Nc1ccc(Oc2ccccc2Br)cc1` [compound 293], the IC50 was in the range of 1 to 100 nM.

Turning to `CC(C)NC(=N)c1c(O)nsc1Nc1ccc(Oc2cc(C(F)(F)F)ccc2Cl)cc1` [compound 294], the IC50 is 100 to 500 nM.

With `CC(CO)NC(=N)c1c(O)nsc1Nc1ccc(Oc2ccccc2Br)cc1` (stereo not drawn) [compound 295], the IC50 was 1 to 100 nM.

On to `CC(C)NC(=N)c1c(O)nsc1Nc1ccc(Oc2ccc(F)cc2Cl)cc1` [compound 296], for which the IC50 fell in the range of 100 to 500 nM.

For the compound `CC(C)NC(=N)c1c(O)nsc1Nc1ccc(Oc2ccc(F)cc2Cl)c(Cl)c1` [compound 297], the IC50 is 100 to 500 nM.

For `CC(C)NC(=N)c1c(O)nsc1Nc1ccc(Oc2ccc(O)cc2)cc1` [compound 298], the IC50 fell in the range of 100 to 500 nM. With `Cc1ccccc1Oc1ccc(Nc2snc(O)c2C(=N)NC(C)CO)cc1` (stereo not drawn) [compound 300], the IC50 is 1 to 100 nM. The same measure for `Cc1ccccc1Oc1ccc(Nc2snc(O)c2C(=N)NC(C)C)cc1` [compound 301]: 1 to 100 nM. The same measure for `CC(CO)NC(=N)c1c(O)nsc1Nc1ccc(Oc2ccccc2F)c(F)c1` (stereo not drawn) [compound 303]: 1 to 100 nM; for `Cc1ccc(Cl)cc1Oc1ccc(Nc2snc(O)c2C(=N)NC(C)CO)cc1` (stereo not drawn) [compound 304]: 1 to 100 nM; for `CC(CO)NC(=N)c1c(O)nsc1Nc1ccc(Oc2ccccc2)c(F)c1` (stereo not drawn) [compound 306]: 1 to 100 nM. Take `CC(C)NC(=N)c1c(O)nsc1Nc1ccc(Oc2ccccc2)c(F)c1` [compound 307]: the IC50 lay in the range of 1 to 100 nM.

Regarding `CC(C)NC(=N)c1c(O)nsc1Nc1ccc(Oc2cc(F)ccc2Cl)cc1` [compound 308], the IC50 lay in the range of 100 to 500 nM. The value for `CNC(=N)c1c(O)nsc1Nc1ccc(Oc2ccccc2)c(F)c1` [compound 309] was over 500 nM. The same measure for `CC(C)NC(=N)c1c(O)nsc1Nc1ccc(Oc2ccccc2F)c(F)c1` [compound 310]: 1 to 100 nM; for `Cc1ccc(Cl)cc1Oc1ccc(Nc2snc(O)c2C(=N)NC(C)C)cc1` [compound 311]: 100 to 500 nM; for `CC(C)NC(=N)c1c(O)nsc1Nc1ccc(Oc2cc(Cl)ccc2Cl)cc1` [compound 313]: over 500 nM. The value for `CC(C)NC(=N)c1c(O)nsc1Nc1ccc(-n2cccn2)cc1` [compound 314] was over 500 nM; that for `CC(CO)NC(=N)c1c(O)nsc1Nc1ccc(-n2cccn2)cc1` (stereo not drawn) [compound 315] was over 500 nM. For `Cc1cc(Nc2snc(O)c2C(=N)NC(C)C)ccc1Oc1ccccc1Cl` [compound 316], the IC50 was in the range of 1 to 100 nM.

For the compound `Cc1cc(Nc2snc(O)c2C(=N)NC(C)C)ccc1Oc1ccccc1` [compound 317], the IC50 was 100 to 500 nM.

As to `CC(C)NC(=N)c1c(O)nsc1Nc1ccc(Oc2c(F)ccc(F)c2Cl)cc1` [compound 318], the IC50 was in the range of 100 to 500 nM.

On to `CC(C)NC(=N)c1c(O)nsc1Nc1ccc(Oc2cc(F)ccc2Cl)c(F)c1` [compound 319], for which the IC50 was in the range of 1 to 100 nM. The same measure for `CC(C)NC(=N)c1c(O)nsc1Nc1ccc(Oc2ccc(Cl)cc2Cl)c(F)c1` [compound 320]: 1 to 100 nM. The value for `CC(CO)NC(=N)c1c(O)nsc1Nc1ccc(Oc2cc(F)ccc2Cl)c(F)c1` (stereo not drawn) [compound 322] was 1 to 100 nM; that for `CC(CO)NC(=N)c1c(O)nsc1Nc1ccc(Oc2c(F)ccc(F)c2Cl)cc1` (stereo not drawn) [compound 323] was 100 to 500 nM.

For `Cc1cc(Nc2snc(O)c2C(=N)NC(C)CO)ccc1Oc1ccccc1` (stereo not drawn) [compound 324], the IC50 was in the range of 100 to 500 nM.

Consider `Cc1ccccc1Oc1ccc(Nc2snc(O)c2C(=N)NC(C)CO)cc1C` (stereo not drawn) [compound 325], for which the IC50 is over 500 nM. The same measure for `CC(C)NC(=N)c1c(O)nsc1Nc1ccc(Oc2cccc(F)c2F)cc1` [compound 326]: 1 to 100 nM; for `CC(C)NC(=N)c1c(O)nsc1Nc1ccc(Oc2cc(F)cc(F)c2Cl)c(F)c1` [compound 328]: 1 to 100 nM; for `CC(C)NC(=N)c1c(O)nsc1Nc1ccc(Oc2cc(F)cc(F)c2Cl)cc1` [compound 329]: 1 to 100 nM. The value for `CC(C)NC(=N)c1c(O)nsc1Nc1ccc(Oc2ccc(Br)cc2)c(F)c1` [compound 330] was 1 to 100 nM; that for `CC(C)NC(=N)c1c(O)nsc1Nc1ccc(Oc2cc(C(F)(F)F)cc(C(F)(F)F)c2)cc1` [compound 331] was 1 to 100 nM; that for `CC(CO)NC(=N)c1c(O)nsc1Nc1ccc(Oc2cc(C(F)(F)F)cc(C(F)(F)F)c2)cc1` (stereo not drawn) [compound 332] was 100 to 500 nM. With `CC(CO)NC(=N)c1c(O)nsc1Nc1ccc(Oc2ccc(Br)cc2)c(F)c1` (stereo not drawn) [compound 333], the IC50 lay in the range of 1 to 100 nM. The value for `Cc1cc(Oc2ccccc2)ccc1Nc1snc(O)c1C(=N)NC(C)C` [compound 334] was 1 to 100 nM; that for `Cc1cc(Oc2ccccc2)ccc1Nc1snc(O)c1C(=N)NC(C)CO` (stereo not drawn) [compound 335] was 1 to 100 nM; that for `CC(C)NC(=N)c1c(O)nsc1Nc1ccc(Oc2cccnc2)c(Cl)c1` [compound 336] was over 500 nM. The same measure for `CC(CO)NC(=N)c1c(O)nsc1Nc1ccc(Oc2ccc(Br)c3ccccc23)cc1` (stereo not drawn) [compound 337]: 1 to 100 nM; for `CC(CO)NC(=N)c1c(O)nsc1Nc1ccc(Oc2cccc3ccccc23)cc1` (stereo not drawn) [compound 338]: 1 to 100 nM. The value for `CC(C)NC(=N)c1c(O)nsc1Nc1ccc(Oc2ccc(Br)c3ccccc23)cc1` [compound 339] was 1 to 100 nM; that for `CC(C)NC(=N)c1c(O)nsc1Nc1ccc(Oc2cccc3ccccc23)cc1` [compound 340] was 1 to 100 nM; that for `CC(C)NC(=N)c1c(O)nsc1Nc1ccc(Oc2cccc(Cl)c2Cl)cc1` [compound 341] was 1 to 100 nM. Regarding `Cc1cccc(Cl)c1Oc1ccc(Nc2snc(O)c2C(=N)NC(C)CO)cc1` (stereo not drawn) [compound 343], the IC50 is over 500 nM. The same measure for `Cc1cccc(Cl)c1Oc1ccc(Nc2snc(O)c2C(=N)NC(C)C)cc1` [compound 344]: over 500 nM; for `Cc1cccc(Oc2ccc(Nc3snc(O)c3C(=N)NC(C)C)cc2)c1C` [compound 345]: 1 to 100 nM; for `Cc1cccc(Oc2ccc(Nc3snc(O)c3C(=N)NC(C)CO)cc2)c1C` (stereo not drawn) [compound 346]: 1 to 100 nM. The value for `Cc1ccc(F)c(Oc2ccc(Nc3snc(O)c3C(=N)NC(C)C)cc2)c1` [compound 347] was 1 to 100 nM; that for `Cc1ccc(F)c(Oc2ccc(Nc3snc(O)c3C(=N)NC(C)CO)cc2)c1` (stereo not drawn) [compound 348] was 1 to 100 nM; that for `CC(C)NC(=N)c1c(O)nsc1Nc1ccc(Oc2cc(F)ccc2F)cc1` [compound 349] was 1 to 100 nM. The same measure for `CC(CO)NC(=N)c1c(O)nsc1Nc1ccc(Oc2cc(F)ccc2F)cc1` (stereo not drawn) [compound 350]: 1 to 100 nM; for `CC(C)NC(=N)c1c(O)nsc1Nc1ccc(Oc2cccc(C(F)(F)F)c2F)cc1` [compound 353]: 1 to 100 nM. Consider `CC(C)NC(=N)c1c(O)nsc1Nc1ccc(Oc2cc(C(F)(F)F)ccc2F)cc1` [compound 355], for which the IC50 lay within 1 to 100 nM. In the case of `CC(C)NC(=N)c1c(O)nsc1Nc1ccc(Oc2ccccc2F)cc1` [compound 356], the IC50 was in the range of 1 to 100 nM.

Regarding `CC(C)NC(=N)c1c(O)nsc1Nc1ccc(Oc2ccc(F)cc2F)cc1` [compound 357], the IC50 was in the range of 1 to 100 nM. With `CC(C)NC(=N)c1c(O)nsc1Nc1ccc(Oc2cc(F)cc(C(F)(F)F)c2)cc1` [compound 358], the IC50 is 100 to 500 nM. As for `CC(CO)NC(=N)c1c(O)nsc1Nc1ccc(Oc2ccc(Cl)cc2)c(Cl)c1` (stereo not drawn) [compound 359], the IC50 is 100 to 500 nM. As to `CC(C)NC(=N)c1c(O)nsc1Nc1ccc(Oc2ccc(Cl)cc2)c(Cl)c1` [compound 361], the IC50 is 100 to 500 nM. The same measure for `CC(CO)NC(=N)c1c(O)nsc1Nc1ccc(Oc2cccc(F)c2)c(F)c1` (stereo not drawn) [compound 362]: 1 to 100 nM; for `CC(C)NC(=N)c1c(O)nsc1Nc1ccc(Oc2cccc(F)c2)c(F)c1` [compound 363]: over 500 nM; for `CC(C)NC(=N)c1c(O)nsc1Nc1ccc(Oc2cccc(C(F)(F)F)c2Cl)c(Cl)c1` [compound 364]: 1 to 100 nM. For `CC(C)NC(=N)c1c(O)nsc1Nc1ccc(Oc2cccc(Cl)c2F)cc1` [compound 366], the IC50 is 1 to 100 nM. For the compound `CC(C)NC(=N)c1c(O)nsc1Nc1ccc(Oc2cc(Cl)ccc2Cl)c(F)c1` [compound 367], the IC50 fell in the range of 1 to 100 nM.

For `CC(C)NC(=N)c1c(O)nsc1Nc1ccc(Oc2ccc(F)cc2Cl)c(F)c1` [compound 369], the concentration for half-maximal inhibition (IC50) lay in the range of 1 to 100 nM. The same measure for `CC(CO)NC(=N)c1c(O)nsc1Nc1ccc(Oc2ccc(F)cc2Cl)c(F)c1` (stereo not drawn) [compound 370]: 1 to 100 nM. The value for `CC(CO)NC(=N)c1c(O)nsc1Nc1ccc(Oc2ccccc2F)cc1` (stereo not drawn) [compound 372] was 100 to 500 nM. The same measure for `CC(C)NC(=N)c1c(O)nsc1Nc1ccc(Oc2cccc(C(F)(F)F)c2Cl)c(F)c1` [compound 373]: 1 to 100 nM. With `CC(CO)NC(=N)c1c(O)nsc1Nc1ccc(Oc2ccc(Cl)cc2Cl)c(F)c1` (stereo not drawn) [compound 374], the IC50 is 1 to 100 nM. Take `CC(CO)NC(=N)c1c(O)nsc1Nc1ccc(Oc2ccc(C(F)(F)F)cc2)cc1` (stereo not drawn) [compound 377]: the IC50 was over 500 nM.

By IC50 is commonly meant the midpoint of a concentration-inhibition curve.
